Reference: the NIST ThermoML archive (doi:10.1021/je400783h)
± gives the expanded uncertainty stated by the source.

Details: for surface tension liquid-gas: Drop volume; for viscosity / speed of sound / mass density / vapor or sublimation pressure: Liquid; for viscosity: Capillary tube (Ostwald / Ubbelohde) method; for speed of sound: Pulse-echo method; for vapor or sublimation pressure: Ebulliometric method (Recirculating still)

Cc1ccc(C=O)o1 [5-methylfurfural]
Details	surface tension liquid-gas [mN/m]	vapor or sublimation pressure [kPa]
278.15 K	43.02 ± 0.3	–
280.65 K	42.75 ± 0.29	–
283.15 K	42.37 ± 0.29	–
285.65 K	42.13 ± 0.29	–
288.15 K	41.8 ± 0.29	–
290.65 K	41.46 ± 0.29	–
293.15 K	41.2 ± 0.29	–
295.65 K	40.9 ± 0.29	–
298.15 K	40.61 ± 0.28	–
300.65 K	40.22 ± 0.28	–
303.15 K	39.95 ± 0.28	0.1 ± 0.1
305.65 K	39.66 ± 0.28	–
308.15 K	39.32 ± 0.28	0.15 ± 0.1
310.65 K	39.04 ± 0.28	–
313.15 K	38.75 ± 0.27	–

Details	mass density [kg/m3]	speed of sound [m/s]	viscosity [mPa·s]
278.15 K, 101.33 kPa	–	1521 ± 1.2	3.164 ± 0.067
280.65 K, 101.33 kPa	–	1511.8 ± 1.2	2.974 ± 0.063
283.15 K, 100 kPa	1118.02 ± 0.56	–	–
283.15 K, 101.33 kPa	–	1502.5 ± 1.2	2.764 ± 0.059
283.15 K, 2500 kPa	1119.83 ± 0.61	–	–
283.15 K, 5000 kPa	1121.37 ± 0.66	–	–
283.15 K, 7500 kPa	1122.65 ± 0.71	–	–
283.15 K, 10000 kPa	1124.02 ± 0.76	–	–
283.15 K, 20000 kPa	1129.41 ± 0.98	–	–
283.15 K, 30000 kPa	1134.53 ± 1.2	–	–
283.15 K, 40000 kPa	1139.44 ± 1.5	–	–
283.15 K, 50000 kPa	1144.14 ± 1.7	–	–
283.15 K, 60000 kPa	1148.58 ± 2	–	–
285.65 K, 101.33 kPa	–	1493.2 ± 1.2	2.628 ± 0.056
288.15 K, 100 kPa	1113.09 ± 0.55	–	–
288.15 K, 101.33 kPa	–	1484 ± 1.2	2.443 ± 0.052
288.15 K, 2500 kPa	1114.82 ± 0.6	–	–
288.15 K, 5000 kPa	1116.39 ± 0.64	–	–
288.15 K, 7500 kPa	1117.87 ± 0.69	–	–
288.15 K, 10000 kPa	1119.23 ± 0.74	–	–
288.15 K, 20000 kPa	1124.75 ± 0.96	–	–
288.15 K, 30000 kPa	1129.99 ± 1.2	–	–
288.15 K, 40000 kPa	1134.99 ± 1.4	–	–
288.15 K, 50000 kPa	1139.79 ± 1.7	–	–
288.15 K, 60000 kPa	1144.31 ± 1.9	–	–
290.65 K, 101.33 kPa	–	1474.7 ± 1.2	2.297 ± 0.049
293.15 K, 100 kPa	1108.15 ± 0.54	–	–
293.15 K, 101.33 kPa	–	1465.5 ± 1.2	2.175 ± 0.046
293.15 K, 2500 kPa	1110.03 ± 0.58	–	–
293.15 K, 5000 kPa	1111.5 ± 0.63	–	–
293.15 K, 7500 kPa	1112.96 ± 0.68	–	–
293.15 K, 10000 kPa	1114.4 ± 0.73	–	–
293.15 K, 20000 kPa	1120.15 ± 0.93	–	–
293.15 K, 30000 kPa	1125.46 ± 1.1	–	–
293.15 K, 40000 kPa	1130.57 ± 1.4	–	–
293.15 K, 50000 kPa	1135.4 ± 1.6	–	–
293.15 K, 60000 kPa	1140.08 ± 1.9	–	–
295.65 K, 101.33 kPa	–	1456.3 ± 1.2	2.056 ± 0.044
298.15 K, 100 kPa	1103.2 ± 0.53	–	–
298.15 K, 101.33 kPa	–	1447 ± 1.2	1.948 ± 0.041
298.15 K, 2500 kPa	1104.82 ± 0.57	–	–
298.15 K, 5000 kPa	1106.62 ± 0.62	–	–
298.15 K, 7500 kPa	1108.34 ± 0.66	–	–
298.15 K, 10000 kPa	1109.63 ± 0.71	–	–
298.15 K, 20000 kPa	1115.43 ± 0.91	–	–
298.15 K, 30000 kPa	1120.97 ± 1.1	–	–
298.15 K, 40000 kPa	1126.15 ± 1.4	–	–
298.15 K, 50000 kPa	1131.12 ± 1.6	–	–
298.15 K, 60000 kPa	1135.84 ± 1.9	–	–
300.65 K, 101.33 kPa	–	1437.8 ± 1.2	1.853 ± 0.039
303.15 K, 100 kPa	1098.25 ± 0.53	–	–
303.15 K, 101.33 kPa	–	1428.7 ± 1.2	1.757 ± 0.037
303.15 K, 2500 kPa	1100.71 ± 1	–	–
303.15 K, 5000 kPa	1101.81 ± 0.6	–	–
303.15 K, 7500 kPa	1103.11 ± 0.65	–	–
303.15 K, 10000 kPa	1104.89 ± 0.69	–	–
303.15 K, 20000 kPa	1110.81 ± 0.88	–	–
303.15 K, 30000 kPa	1116.44 ± 1.1	–	–
303.15 K, 40000 kPa	1121.72 ± 1.3	–	–
303.15 K, 50000 kPa	1126.87 ± 1.6	–	–
303.15 K, 60000 kPa	1131.66 ± 1.8	–	–
305.65 K, 101.33 kPa	–	1419.6 ± 1.2	1.674 ± 0.036
308.15 K, 100 kPa	1093.29 ± 0.51	–	–
308.15 K, 101.33 kPa	–	1410.5 ± 1.2	1.598 ± 0.034
308.15 K, 2500 kPa	1095.01 ± 0.55	–	–
308.15 K, 5000 kPa	1096.9 ± 0.59	–	–
308.15 K, 7500 kPa	1098.15 ± 0.63	–	–
308.15 K, 10000 kPa	1100.06 ± 0.68	–	–
308.15 K, 20000 kPa	1106.17 ± 0.86	–	–
308.15 K, 30000 kPa	1111.86 ± 1.1	–	–
308.15 K, 40000 kPa	1117.24 ± 1.3	–	–
308.15 K, 50000 kPa	1122.38 ± 1.5	–	–
308.15 K, 60000 kPa	1127.34 ± 1.8	–	–
310.65 K, 101.33 kPa	–	1401.4 ± 1.2	1.527 ± 0.033
313.15 K, 100 kPa	1088.32 ± 0.5	–	–
313.15 K, 101.33 kPa	–	1392.3 ± 1.2	1.461 ± 0.031
313.15 K, 2500 kPa	1090.31 ± 0.54	–	–
313.15 K, 5000 kPa	1092.06 ± 0.58	–	–

101.33 kPa, Vibrating tube method
Details	mass density [kg/m3]
278.15 K	1122.94 ± 0.34
280.65 K	1120.49 ± 0.34
283.15 K	1118.02 ± 0.34
285.65 K	1115.56 ± 0.34
288.15 K	1113.09 ± 0.34
290.65 K	1110.62 ± 0.33
293.15 K	1108.15 ± 0.33
295.65 K	1105.68 ± 0.33
298.15 K	1103.2 ± 0.33
300.65 K	1100.73 ± 0.33
303.15 K	1098.25 ± 0.32
305.65 K	1095.77 ± 0.32
308.15 K	1093.29 ± 0.32
310.65 K	1090.8 ± 0.32
313.15 K	1088.32 ± 0.32
